Assay results from patent US3995044A, “Pyridine carboxylic acid amides for mycobacterium infections” (priority 1974, dated 1976).
Values after ≈ are worked out from the molar mass of the structure shown.

Assays:
[1] = tested on: Mycobacterium tuberculosis H37Rv; assay: Minimum inhibitory concentration on Lowenstein-Jensen egg medium, normally sensitive test strain; type: cell-based; settings: per ml of nutrient medium
[2] = tested on: Mycobacterium tuberculosis H37Rv; assay: In vivo action in mice infected with tuberculosis (Tb germ count in spleen); set-up: species or system white mice (CFI breed); settings: once daily, 2 weeks (5 times per week); for In vivo action, index of reduction in Tb germs, Tb-mice, orally: 100 mg/kg orally; for In vivo action, index of reduction in Tb germs, Tb-mice, subcutaneously: 100 mg/kg subcutaneously
Method: (§1) The animal experiments were above all carried out with white mice (CFI breed, Winkelmann, Kirchborchen) infected with Mycobacterium tuberculosis H37Rv. After intravenous infection with 10^4 -10^5 germ units/mouse, an oral or subcutaneous treatment was carried out once daily for a period of 2 weeks (that is to say 5 times per week). At predetermined intervals of time (11th, 14th and 17th day after infection) mice from the treatment groups were killed, the spleens were removed and standardised smear preparations were produced from the homogenate; the tubercle germ content in these was evaluated by means of fluorescence microscopy. […] The values obtained are grouped together in 5 rating groups and give a germ count index; the indices denote the following:
(§2) Index 0 corresponds to a reduction in the germ count of
(§3) Index 1 corresponds to a reduction in the germ count of
(§4) Index 2 corresponds to a reduction in the germ count of
(§5) >40-70% = distinct action
(§6) Index 3 corresponds to a reduction in the germ count of
Index 4 corresponds to a reduction in the germ count of […]

[3] = tested on: Mycobacterium tuberculosis H37Rv; assay: In vivo action in guinea pigs infected with tuberculosis (Tb germ count in lung); settings: 30 mg/kg orally, once daily from 14th day, 3 weeks (5 times per week)
Method: as §1, §2, §3, §4, §5, §6
Index 4 corresponds to a reduction in the germ count of
In addition to the experiments on mice infected with tuberculosis, experiments were carried out analogously on guinea pigs. In this case, the germ count was determined on the lung homogenate. The animals were infected subcutaneously intrainguinally with Mycobacterium tuberculosis H37Rv and were subjected to therapy once daily from the 14th day after infection over a period of 3 weeks, that is to say 5 times per week. The germ counts were determined in the 4th, 5th and 6th week after infection.

[4] = tested on: Mycobacterium tuberculosis H37Rv; assay: MIC in modified Difco-Tb-Bouillon, normally sensitive strain; type: cell-based
M. bovis Ravenal = assay: microbe, parasite or virus in culture; type: cell-based; settings: Mycobacterium tuberculosis variant bovis, read-out: MIC, M. bovis Ravenal
[5] = tested on: "Atypical mycobacteria" Runyon Grouping 1; assay: Anti-mycobacterial spectrum of action (MIC), atypical mycobacteria Runyon grouping 1; type: cell-based; settings: modified Difco-Tb-Bouillon
[6] = tested on: "Atypical mycobacteria" Runyon Grouping 2; assay: Anti-mycobacterial spectrum of action (MIC), atypical mycobacteria Runyon grouping 2; type: cell-based; settings: modified Difco-Tb-Bouillon
[7] = tested on: "Atypical mycobacteria" Runyon Grouping 3; assay: Anti-mycobacterial spectrum of action (MIC), atypical mycobacteria Runyon grouping 3; type: cell-based; settings: modified Difco-Tb-Bouillon
[8] = tested on: "Atypical mycobacteria" Runyon Grouping 4; assay: Anti-mycobacterial spectrum of action (MIC), atypical mycobacteria Runyon grouping 4; type: cell-based; settings: modified Difco-Tb-Bouillon
[9] = Table 2, read-out: MIC, normally sensitive H37Rv (Table 2)
[10] = Table 3, read-out: MIC, M. tuberculosis H37Rv (Table 3)

| Structure (SMILES) | MIC [1] [µg/mL] | In vivo action, index of reduction in Tb germs, Tb-mice, orally [2] | In vivo action, index of reduction in Tb germs, Tb-mice, subcutaneously [2] | In vivo action, index of reduction in Tb germs, Tb-guinea pigs, orally [3] | MIC [4, 9] [µg/mL] | MIC [4, 10] [µg/mL] | MIC (M. bovis Ravenal) [µg/mL] | MIC [5] [µg/mL] | MIC [6] [µg/mL] | MIC [7] [µg/mL] | MIC [8] [µg/mL] |
| --- | --- | --- | --- | --- | --- | --- | --- | --- | --- | --- | --- |
| O=C(NCc1ccccn1)c1cc([N+](=O)[O-])cc([N+](=O)[O-])c1 [Example 1, N-(pyrid-2-ylmethyl)-3,5-dinitrobenzoic acid amide] | 1 (≈ 3.31 µM) | 4 (reduction in the germ count of >90% = very good action) | 3 (reduction in the germ count of >70-90% = good action) | 4 (reduction in the germ count of >90% = very good action) | 1.6 (≈ 5.29 µM) | 1.6 (≈ 5.29 µM) | 3.1 (≈ 10.3 µM) | 6.2 (≈ 20.5 µM) | 6.2 (≈ 20.5 µM) | 50 (≈ 165 µM) | 6.2 (≈ 20.5 µM) |
| O=C(NCc1cnc2ccccc2c1)c1cc([N+](=O)[O-])cc([N+](=O)[O-])c1 [Example 9] | 2 (≈ 5.68 µM) | 1 (reduction in the germ count of >20-40% = trace action) | 1 (reduction in the germ count of >20-40% = trace action) | 4 (reduction in the germ count of >90% = very good action) | 0.2 (≈ 0.568 µM) | 0.2 (≈ 0.568 µM) | 0.4 (≈ 1.14 µM) | 3.1 (≈ 8.8 µM) | 3.1 (≈ 8.8 µM) | > 100 | 1.6 (≈ 4.54 µM) |
| O=C(NCCc1ccccn1)c1cc([N+](=O)[O-])cc([N+](=O)[O-])c1 [Example 10] | 1 (≈ 3.16 µM) | 2 (reduction in the germ count of >40-70% = distinct action) | 2 (reduction in the germ count of >40-70% = distinct action) | 3 (reduction in the germ count of >70-90% = good action) | – | – | – | – | – | – | – |
| O=C(NCc1cccnc1)c1cc([N+](=O)[O-])cc([N+](=O)[O-])c1 [Example 12] | 32 (≈ 106 µM) | 2 (reduction in the germ count of >40-70% = distinct action) | 2 (reduction in the germ count of >40-70% = distinct action) | 3 (reduction in the germ count of >70-90% = good action) | – | – | – | – | – | – | – |
| O=C(NCc1ccncc1)c1cc([N+](=O)[O-])cc([N+](=O)[O-])c1 [Example 13] | 32 (≈ 106 µM) | 3 (reduction in the germ count of >70-90% = good action) | 2 (reduction in the germ count of >40-70% = distinct action) | 4 (reduction in the germ count of >90% = very good action) | – | – | – | – | – | – | – |
| Cc1cccc(CNC(=O)c2cc([N+](=O)[O-])cc([N+](=O)[O-])c2)n1 [Example 14] | – | – | – | – | 3.1 (≈ 9.8 µM) | 3.1 (≈ 9.8 µM) | 3.1 (≈ 9.8 µM) | 6.2 (≈ 19.6 µM) | 12.5 (≈ 39.5 µM) | 25 (≈ 79 µM) | 12.5 (≈ 39.5 µM) |
| O=C(NCc1ccc2ccccc2n1)c1cc([N+](=O)[O-])cc([N+](=O)[O-])c1 [Example 15] | 1 (≈ 2.84 µM) | 3 (reduction in the germ count of >70-90% = good action) | 2 (reduction in the germ count of >40-70% = distinct action) | 3 (reduction in the germ count of >70-90% = good action) | 0.2 (≈ 0.568 µM) | 0.2 (≈ 0.568 µM) | 0.8 (≈ 2.27 µM) | 1.6 (≈ 4.54 µM) | 6.2 (≈ 17.6 µM) | 1.6 (≈ 4.54 µM) | 1.6 (≈ 4.54 µM) |
| O=C(NCC1CCCO1)c1cc([N+](=O)[O-])cc([N+](=O)[O-])c1 (stereo not shown) [Example 20] | – | – | – | – | 1.6 (≈ 5.42 µM) | 1.6 (≈ 5.42 µM) | 3.1 (≈ 10.5 µM) | 6.2 (≈ 21 µM) | 6.2 (≈ 21 µM) | 100 (≈ 339 µM) | 6.2 (≈ 21 µM) |
| O=C(NCC1CCC=CO1)c1cc([N+](=O)[O-])cc([N+](=O)[O-])c1 (stereo not shown) [Example 22] | – | – | – | – | 0.4 (≈ 1.3 µM) | 0.4 (≈ 1.3 µM) | 3.1 (≈ 10.1 µM) | 1.6 (≈ 5.21 µM) | 1.6 (≈ 5.21 µM) | > 100 | 1.6 (≈ 5.21 µM) |
| CC(NC(=O)c1cc([N+](=O)[O-])cc([N+](=O)[O-])c1)c1ccccn1 (stereo not shown) [Example 29] | 2 (≈ 6.32 µM) | 4 (reduction in the germ count of >90% = very good action) | 3 (reduction in the germ count of >70-90% = good action) | – | 1.6 (≈ 5.06 µM) | 1.6 (≈ 5.06 µM) | 3.1 (≈ 9.8 µM) | 3.1 (≈ 9.8 µM) | 3.1 (≈ 9.8 µM) | 100 (≈ 316 µM) | 3.1 (≈ 9.8 µM) |
